# Source: patent US7973219B2, “Method for producing transgenic plants resistant to weed control compounds which disrupt the porphyrin pathways of plants” (Sumitomo Chemical Company, Limited, priority 1998, dated 2011)
# Legend:
# [1] = tested on: E. coli BT3/pACYCSP+pTVCSF strain; experiment: Growth of E. coli BT3/pACYCSP+pTVCSF (variant cucumber ferrochelatase) with herbicidal compound; assay type: cell-based, Escherichia coli; conditions: 18 hours culture, Table 13
# Source text: According to the description of Gibson, L. C. D. et al., Proc. Natl. Acad. Sci. USA, 92; p 1941 (1995), the DNA fragment containing bchH gene prepared in Example 1 was digested with the restriction enzymes NdeI and BglII. The resultant DNA fragment was inserted between NdeI restriction site and BamHI restriction site of expression vector pET11a (manufactured by Stratagene) to obtain plasmid pETBCH (FIG. 1). This plasmid pETBCH was introduced into E. coli BL21(DE3) strain competent cells (manufactured by Stratagene) according to the manual attached to the competent cells to obtain E. coli BL21(DE3)/pETBCH strain. The strain was inoculated into 1.5 ml LB liquid culture medium (1% tryptone, 0.5% yeast extract, 0.5% NaCl) containing 100 μg/ml ampicillin in a tube (14×10 mm), and the tube was covered with aluminum foil (hereinafter referred to as dark conditions), cultured with shaking at 37° C. under light of fluorescent lamp (about 8000 lux). When the absorbance at 600 nm of the liquid culture medium became about 0.6, isopropyl β-D-thiogalactopyranoside (IPTG) was added to the liquid culture medium so that the final concentration was 0.4 mM, and the culture was continued for about additional 20 hours. […] In contrast to this, when E. coli BL21(DE3)/pETBCH strain was cultured according to the same manner (with IPTG) except that the tube was not covered with aluminum foil (hereinafter referred to as light conditions), E. coli grew and turned red as above.
# PCR was carried out by using cucumber ferrochelatase cDNA clone isolated by the method described in Miyamoto, K. et al. Plant Physiol., 105; p 769 (1994) as a template, an oligonucleotide composed of the nucleotide sequence of SEQ ID NO: 21 and an oligonucleotide composed of the nucleotide sequence of SEQ ID NO: 22 as primers to amplify the DNA fragment encoding cucumber ferrochelatase whose signal sequence had been deleted (hereinafter referred to as the variant cucumber ferrochelatase). […]
# These E. coli strains were inoculated into YPT medium containing 10 or 1 ppm of the PPO inhibitory-type herbicidal compound represented by Structure 8, 100 μg/ml ampicillin, 15 μg/ml chloramphenicol, 10 μg/ml kanamycin, 10 μg/ml hemin and 50 μg/ml aminolevulinic acid, cultured under dark conditions or light conditions according to the same manner as in Example 2. Then, 18 hours after initiation of culture, the absorbance of liquid culture medium was measured at 600 nm. By taking the absorbance of the medium without the herbicidal compound as 1, the relative value of the absorbance of the medium containing the herbicidal compound was calculated.
# [2] = tested on: E. coli BT3/pACYCSP+pYAGF strain; experiment: Growth of E. coli BT3/pACYCSP+pYAGF with herbicidal compound; assay type: cell-based, Escherichia coli; conditions: 1 ppm, 18 hours culture, Table 15
# Source text: According to the description of Gibson, L. C. D. et al., Proc. Natl. Acad. Sci. USA, 92; p 1941 (1995), the DNA fragment containing bchH gene prepared in Example 1 was digested with the restriction enzymes NdeI and BglII. The resultant DNA fragment was inserted between NdeI restriction site and BamHI restriction site of expression vector pET11a (manufactured by Stratagene) to obtain plasmid pETBCH (FIG. 1). This plasmid pETBCH was introduced into E. coli BL21(DE3) strain competent cells (manufactured by Stratagene) according to the manual attached to the competent cells to obtain E. coli BL21(DE3)/pETBCH strain. The strain was inoculated into 1.5 ml LB liquid culture medium (1% tryptone, 0.5% yeast extract, 0.5% NaCl) containing 100 μg/ml ampicillin in a tube (14×10 mm), and the tube was covered with aluminum foil (hereinafter referred to as dark conditions), cultured with shaking at 37° C. under light of fluorescent lamp (about 8000 lux). When the absorbance at 600 nm of the liquid culture medium became about 0.6, isopropyl β-D-thiogalactopyranoside (IPTG) was added to the liquid culture medium so that the final concentration was 0.4 mM, and the culture was continued for about additional 20 hours. […]
smiles,measurement,setting,value
C#CCOc1cc(N2C(=O)C3=C(CCCC3)C2=O)c(F)cc1Cl [Structure 8],Relative absorbance,"[1]; in the dark, 1 ppm",0.92
same,Relative absorbance,"[1]; in the dark, 10 ppm",0.89
same,Relative absorbance,"[1]; in the light, 1 ppm",0.78
same,Relative absorbance,"[1]; in the light, 10 ppm",0.73
same,Relative absorbance,[2]; in the dark,0.96
same,Relative absorbance,[2]; in the light,0.62
